Where two headings read alike, the source gives them in different places. Marks after values point to notes of the source that are not given here.
What was measured:
[1] = target: T1, αSYN fibrils inoculated into the right striatum (Homo sapiens, UniProt P37840); assay: In vivo PET imaging in αSYN fibril-inoculated rats; set-up: species or system rat; conditions: for mean distribution volume ratio (DVR)-1 40-60min (binding potential): 4 days post inoculation
T1 construct: made in house; host or cells: E. coli BL21(DE3)pLys
Method: Rats were inoculated with αSYN fibrils (4 μL, 30 μM) into the right striatum (see supplementary material and methods section for a detailed description) and scanned 4 days post-inoculation with 23 ± 1 MBq of (d3)-[^11C]MODAG-001.
Data acquisition, correction, framing and reconstruction, volume of interest (VOI) definition, and determination of binding parameters are described in detail in the supplementary material and methods section.
Rats were allowed to adapt for two weeks in the animal facility before fibril injection. Three adult female rats were anaesthetized with an intraperitoneal (i.p.) injection of a mixture of fentanyl (0.005 mg/kg), midazolam (2 mg/kg), and medetomidine (0.15 mg/kg) at 1 mL/kg. The head of each rat was shaved, and the animal was placed into a stereotaxic frame. A central incision was made to expose the bregma and lambda. A 5 µL syringe needle (Hamilton Company, Reno (NV), USA) was enclosed with a glass capillary (inner diameter, 50 µm, Hilgenberg GmbH, Malsfeld, Germany). αSYN fibrils (4 µL, 30 µM) were injected using a stereotaxic injector (Stoelting, Wood Lane, IL, USA) through a drill hole into the right striatum (ML= -3.2 mm, AP = 0.0 mm, DV = -4.8 mm) according to the stereotaxic atlas of Paxinos and Watson [9][. Based on the volume of the right striatum (0.04 cm^3), the concentration of inoculated fibrils was calculated as 2.8 µM. As a negative control, 4 µL of vehicle (50 mM Tris base, 100 mM sodium chloride, 0.02 % sodium azide, pH 7.0) were injected into the contralateral striatum. A total fibril volume of 4 µL was obtained by the injection of 0.4 µL every 60 seconds. To allow for diffusion of the fibrils into the tissue, the needle was left in this position for five minutes. […]
Whole body mouse PET scans were coregistered to the whole body MR scan, which was sequentially acquired after the PET scan, and the volumes of interest (VOIs) of the lung, liver, heart, brain, and kidneys were drawn by hand based on the MR anatomical information using PMOD software (version 3.2; PMOD Technologies, Zürich, Switzerland). VOIs of different brain regions were extracted using the mouse or rat brain atlas provided by PMOD [10-12], and tissue time activity curves (TACs) were calculated and are expressed as standardized uptake values (SUVs), which were calculated as follows: SUV(t) = radioactivity concentration (kBq/mL of the organ)/(injected dose [kBq]/body weight [g]). […] Distribution volume ratio 1 (DVR-1) values were calculated from individual TACs from 40 to 60 minutes, using the vehicle-injected striatum as a reference region, with the following formula: activity in fibril inoculated right striatum/activity in vehicle injected left striatum) - 1. […]

[2] = Radio-metabolite analysis in mouse plasma and brain by radio-HPLC; format: in vivo; conditions: for M3 % / M3 %ID: metabolite 3; for M2* % / M2* %ID: mixture of various metabolites
Method: For metabolite analysis, mice were i.v. injected with 91 ± 24 MBq of [^11C]MODAG-001 (n = 4 per time point) or 120 ± 41 MBq of (d3)-[^11C]MODAG-001 (n = 3 per time point) using a tail vein catheter. Five and 15 min after injection, plasma and brain homogenates were analyzed using radio-HPLC (for detailed information see supplemental material and methods section).
A 400 µL blood sample was collected by heart puncture five or 15 minutes after tracer injection. The blood was centrifuged at 17,000 x g and 4 °C for two minutes, and the plasma was transferred to a 1.5 mL reaction tube on ice for further analysis. After blood collection, mice were transcardially perfused (10 mL/min) with 20 mL of ice-cold PBS, and the brain of each mouse was removed from the skull. The brain was transferred to a glass tube (2 mL Dounce tissue grinder set, Sigma Aldrich Chemie GmbH) containing 0.5 mL of ice-cold PBS, sequentially homogenized using large and small clearance pestles and transferred to a 1.5 mL reaction tube on ice for further analysis. Plasma or brain homogenate was mixed 1:1 with acetonitrile and briefly centrifuged. After two minutes of incubation on ice, each mixture was centrifuged at room temperature for 1.5 minutes at 12,000 x g (MiniSpin®, Eppendorf AG) to remove precipitated proteins. The supernatant was subjected to reversed-phase HPLC on a Luna Phenyl Hexyl column (5 µm, 100 Å, 300 mm x 4.6 mm, Phenomenex) equipped with a radioactivity detector with 0.1 % trifluoroacetic acid in water/acetonitrile (70:30) at an isocratic flow rate of 1.5 mL/min.
For data analysis, the median of ten consecutive data points was calculated to remove noise; data were corrected for radioactive decay to time zero, defined as start of the HPLC of the five minute brain sample. This time zero radioactivity was plotted against time using Origin software (OriginLab Corporation, version 9.1G, Northampton, MA, USA). The area under the curve was calculated in % using the peak analyzer function and scaled up that the peaks add up to 100 %. The area under the curve was transformed into radioactivity values using a standard of [^11C]MODAG-001 with known radioactivity also corrected for decay and expressed as % injected radioactivity dose (%ID) per gram of brain tissue or per plasma in one mL of blood.

[3] = In vivo PET imaging in mice (brain uptake); conditions: mouse, i.v. injection, one exemplary animal
Method: PET imaging was performed on a dedicated small animal Inveon PET scanner (Siemens Healthcare, Knoxville (TN), USA). Mice and rats were anesthetized with 1.5–1.7% isoflurane evaporated in 100% oxygen at a flow rate of 0.8 L/min, which was maintained during the entire experiment. After a tail vein catheter was placed, the animal was positioned in the center of the field of view (FOV) on an MR-compatible PET bed that was connected to a feedback temperature control unit set to 37 °C. Mice were injected intravenously (i.v.) with 17 ± 2 MBq [^11C]MODAG-001 (n = 3) or 12 ± 1 MBq (d3)-[^11C]MODAG-001 (n = 5) 5 s after the start of the PET acquisition. […]
Whole body mouse PET scans were coregistered to the whole body MR scan, which was sequentially acquired after the PET scan, and the volumes of interest (VOIs) of the lung, liver, heart, brain, and kidneys were drawn by hand based on the MR anatomical information using PMOD software (version 3.2; PMOD Technologies, Zürich, Switzerland). VOIs of different brain regions were extracted using the mouse or rat brain atlas provided by PMOD [10-12], and tissue time activity curves (TACs) were calculated and are expressed as standardized uptake values (SUVs), which were calculated as follows: SUV(t) = radioactivity concentration (kBq/mL of the organ)/(injected dose [kBq]/body weight [g]). […]

recombinant αSYN fibrils = conditions: cited from earlier work
αSYN and Aβ1–42 fibrils = test system: αSYN and Aβ1–42 fibrils; set-up: method as in PMID 29989823; conditions: similar rat model, despite good cerebral uptake and high Am ref 30; cited from earlier work
[4] = mouse brain, 5 min after injection
[5] = mouse brain, 5 min after injection, parent compound
[6] = mouse brain, 15 min after injection, metabolite 1
[7] = mouse brain, 15 min after injection
[8] = mouse brain, 15 min after injection, parent compound
[9] = mouse plasma, 5 min after injection, metabolite 1
[10] = mouse plasma, 5 min after injection
[11] = mouse plasma, 5 min after injection, parent compound
[12] = mouse plasma, 15 min after injection, metabolite 1
[13] = mouse plasma, 15 min after injection
[14] = mouse plasma, 15 min after injection, parent compound

In the case of `[2H]C([2H])([2H])N([11CH3])c1ccc(-c2cc(-c3ccnc(Br)c3)[nH]n2)cc1` [(d3)-[^11C]MODAG-001], the “mean distribution volume ratio (DVR)-1 40-60min (binding potential)” value ([1]; 70% automatic isocontour VOI, contralateral side as reference) is reported as 0.44 ± 0.21, the “peak SUV” value ([1]; left striatum of fibril-inoculated rats) is reported as 2.1 ± 0.1 and the “peak SUV” value ([1]; non-injected control rat) is reported as 2.1. The “mean distribution volume ratio (DVR)-1 40-60min (binding potential)” value ([1]; whole striatum VOI, contralateral vehicle-injected striatum as reference) was 0.14 ± 0.1, the “M1 %ID” value ([2]; mouse brain, 5 min after injection, metabolite 1) was 0.4* %ID per g brain tissue and the M1 % ([2]; mouse brain, 5 min after injection, metabolite 1, % of radioactivity) was 5%. For the same compound, the M3 % [2, 4] was 2%, the “M3 %ID” value [2, 4] was 0.2* %ID per g brain tissue and the P % [2, 5] was 93%. The “P %ID” value [2, 5] was 8.8 %ID per g brain tissue, the M1 % [2, 6] was 5% and the “M1 %ID” value [2, 6] was 0.4* %ID per g brain tissue. The M3 % [2, 7] was 8%, the “M3 %ID” value [2, 7] was 0.7* %ID per g brain tissue and the P % [2, 8] was 87%. The “P %ID” value [2, 8] was 7.2 %ID per g brain tissue, the M1 % [2, 9] was 21% and the “M1 %ID” value [2, 9] was 0.6^# %ID per plasma in 1 mL blood. The M3 % [2, 10] was 6%, the “M3 %ID” value [2, 10] was 0.1^# %ID per plasma in 1 mL blood and the “M2* %” value [2, 10] was 34%. For the same compound, the “M2* %ID” value [2, 10] was 0.9^# %ID per plasma in 1 mL blood, the P % [2, 11] was 39% and the “P %ID” value [2, 11] was 1.0^# %ID per plasma in 1 mL blood. For the same compound, the M1 % [2, 12] was 30%, the “M1 %ID” value [2, 12] was 0.8^# %ID per plasma in 1 mL blood and the M3 % [2, 13] was 4%. For the same compound, the “M3 %ID” value [2, 13] was 0.1^# %ID per plasma in 1 mL blood, the “M2* %” value [2, 13] was 36% and the “M2* %ID” value [2, 13] was 1.0^# %ID per plasma in 1 mL blood. The P % [2, 14] was 30%, the “P %ID” value [2, 14] was 0.8^# %ID per plasma in 1 mL blood and the “peak standardized uptake value (SUV) in brain” value [3] was 1.7.

`CN([11CH3])c1ccc(-c2cc(-c3ccnc(Br)c3)[nH]n2)cc1` [[^11C]MODAG-001] showed a tissue uptake at 5 min ([2]; intravenous, mouse brain, 5 min after injection, parent compound, read-out: P %ID) of 10.5 %ID/g, a tissue uptake at 15 min ([2]; intravenous, mouse brain, 15 min after injection, parent compound, read-out: P %ID) of 5.3 %ID/g and a P % [2, 5] of 91%. The “P %ID” value [2, 5] was 10.5* %ID per g brain tissue, the P % [2, 8] was 81% and the “P %ID” value [2, 8] was 5.3* %ID per g brain tissue. The P % [2, 11] was 26%, the “P %ID” value [2, 11] was 0.8^# %ID per plasma in 1 mL blood and the P % [2, 14] was 24%. For the same compound, the “P %ID” value [2, 14] was 0.7^# %ID per plasma in 1 mL blood and the “peak standardized uptake value (SUV) in brain” value [3] was 1.4.

For `O=[N+]([O-])c1ccc2c(c1)Sc1cc(OC/C=C/I)ccc1N2` [[^125I]SIL23], the Kd (recombinant αSYN fibrils; recombinant αSYN fibrils ref 24) is given as 0.148 µM.

For `CN(C)c1ncc(C=Cc2nc3ccc(OCCF)cc3o2)s1` [[^18F]BF-227], the binding in vivo (αSYN and Aβ1–42 fibrils) is listed as “no binding was observed in vivo” and the Kd (recombinant αSYN fibrils; recombinant αSYN fibrils ref 26) is listed as 0.0096 µM.

For `CN(c1ccc(/C=C/c2nc3ccccc3o2)cc1)S(=O)(=O)c1ccccc1[18F]` [[^18F]2FBox], the binding in vivo (αSYN and Aβ1–42 fibrils) is given as “no binding was observed in vivo”.

From PMC8113290, “[^11C]MODAG-001—towards a PET tracer targeting α-synuclein aggregates” (European Journal of Nuclear Medicine and Molecular Imaging, 2020)
